pEC50: −log10 of the molar value.
Assays:
[1] = Mouse microsomal stability; format: in vitro ADME; conditions: mouse microsomes
Protocol: Aqueous solubility, mouse microsomal stability and mouse plasma protein binding assays were performed by Malvern Panalytical (UK) as previously described.[29]

I2286T mPIEZO1 = target: T1, I2286T mPIEZO1 (Mus musculus, UniProt E2JF22, I2286T); test: Intracellular Ca2+ measurement (fura-2), T-REx-293 cells stably transfected; format: cell-based
T1 construct: expressed in transfected cells
T1 sequence (E2JF22 whole entry I2286T): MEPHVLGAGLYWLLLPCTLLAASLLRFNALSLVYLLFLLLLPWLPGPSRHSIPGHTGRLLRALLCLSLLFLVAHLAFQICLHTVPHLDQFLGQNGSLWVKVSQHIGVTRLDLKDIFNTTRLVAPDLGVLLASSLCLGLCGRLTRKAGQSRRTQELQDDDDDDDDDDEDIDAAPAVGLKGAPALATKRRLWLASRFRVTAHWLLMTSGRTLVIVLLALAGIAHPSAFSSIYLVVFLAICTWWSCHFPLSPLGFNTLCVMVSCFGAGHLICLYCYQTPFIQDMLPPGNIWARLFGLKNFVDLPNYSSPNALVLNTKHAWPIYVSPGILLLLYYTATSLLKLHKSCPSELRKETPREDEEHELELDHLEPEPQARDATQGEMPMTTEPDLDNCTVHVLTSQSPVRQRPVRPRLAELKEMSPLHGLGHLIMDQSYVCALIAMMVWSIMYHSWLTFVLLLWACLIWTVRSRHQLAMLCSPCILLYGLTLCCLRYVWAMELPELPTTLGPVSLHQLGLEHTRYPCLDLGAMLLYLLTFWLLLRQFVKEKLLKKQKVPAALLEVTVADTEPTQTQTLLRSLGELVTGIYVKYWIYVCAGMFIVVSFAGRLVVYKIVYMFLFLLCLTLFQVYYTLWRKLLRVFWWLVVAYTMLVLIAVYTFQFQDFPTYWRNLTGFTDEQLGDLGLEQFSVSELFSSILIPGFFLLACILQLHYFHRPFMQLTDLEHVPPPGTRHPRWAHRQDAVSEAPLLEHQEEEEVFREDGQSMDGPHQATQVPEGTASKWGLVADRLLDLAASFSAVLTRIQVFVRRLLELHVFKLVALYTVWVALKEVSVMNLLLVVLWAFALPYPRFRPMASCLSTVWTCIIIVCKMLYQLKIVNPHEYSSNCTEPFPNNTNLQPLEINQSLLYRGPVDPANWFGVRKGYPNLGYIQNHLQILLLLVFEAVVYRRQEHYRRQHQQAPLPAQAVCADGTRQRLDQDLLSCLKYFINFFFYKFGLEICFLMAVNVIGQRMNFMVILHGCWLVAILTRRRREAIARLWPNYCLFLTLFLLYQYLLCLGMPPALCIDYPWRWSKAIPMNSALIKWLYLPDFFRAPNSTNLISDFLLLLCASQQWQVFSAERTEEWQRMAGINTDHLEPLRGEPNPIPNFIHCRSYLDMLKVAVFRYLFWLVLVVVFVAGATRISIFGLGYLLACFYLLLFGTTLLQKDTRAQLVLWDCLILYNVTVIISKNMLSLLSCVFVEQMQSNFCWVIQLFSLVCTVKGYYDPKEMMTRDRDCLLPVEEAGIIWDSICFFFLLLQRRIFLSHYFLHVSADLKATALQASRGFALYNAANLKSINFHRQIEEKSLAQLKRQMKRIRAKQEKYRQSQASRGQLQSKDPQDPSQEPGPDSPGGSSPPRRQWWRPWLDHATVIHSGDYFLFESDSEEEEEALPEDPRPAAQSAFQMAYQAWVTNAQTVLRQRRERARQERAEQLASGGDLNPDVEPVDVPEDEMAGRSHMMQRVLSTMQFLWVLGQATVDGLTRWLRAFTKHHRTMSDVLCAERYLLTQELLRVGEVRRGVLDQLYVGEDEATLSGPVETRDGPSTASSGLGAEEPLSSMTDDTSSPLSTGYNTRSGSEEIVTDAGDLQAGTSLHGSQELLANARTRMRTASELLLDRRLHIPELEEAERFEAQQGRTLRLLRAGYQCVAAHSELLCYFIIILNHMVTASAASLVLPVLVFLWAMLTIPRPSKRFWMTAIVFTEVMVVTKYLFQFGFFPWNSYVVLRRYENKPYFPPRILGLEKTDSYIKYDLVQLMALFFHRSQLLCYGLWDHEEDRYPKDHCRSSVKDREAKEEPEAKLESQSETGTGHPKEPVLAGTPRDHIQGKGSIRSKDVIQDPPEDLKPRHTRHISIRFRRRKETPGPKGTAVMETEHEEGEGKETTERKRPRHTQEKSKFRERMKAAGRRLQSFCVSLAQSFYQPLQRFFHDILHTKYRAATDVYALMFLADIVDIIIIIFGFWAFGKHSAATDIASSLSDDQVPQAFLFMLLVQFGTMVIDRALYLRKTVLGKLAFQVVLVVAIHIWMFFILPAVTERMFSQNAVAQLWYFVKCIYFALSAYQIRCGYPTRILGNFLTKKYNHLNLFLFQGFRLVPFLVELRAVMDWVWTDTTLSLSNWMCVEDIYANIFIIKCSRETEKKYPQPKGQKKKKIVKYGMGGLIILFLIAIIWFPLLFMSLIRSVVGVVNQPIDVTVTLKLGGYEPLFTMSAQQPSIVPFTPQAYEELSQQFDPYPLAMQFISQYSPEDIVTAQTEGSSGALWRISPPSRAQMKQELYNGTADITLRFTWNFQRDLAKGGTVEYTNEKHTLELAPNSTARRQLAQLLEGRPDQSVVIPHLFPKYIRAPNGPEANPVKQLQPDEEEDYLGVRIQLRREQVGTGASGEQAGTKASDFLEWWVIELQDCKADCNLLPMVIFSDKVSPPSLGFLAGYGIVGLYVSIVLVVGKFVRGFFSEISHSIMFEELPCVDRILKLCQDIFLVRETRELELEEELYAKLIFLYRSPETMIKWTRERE
Protocol: T-REx-293 cell line was transfected with pcDNA4/TO-mPIEZO1 constructs using Lipofectamine 2000 (Invitrogen) as above and treated with 200 μg.mL^−1 zeocin (InvivoGen) to select for stably transfected cells. At least two strongly expressing clonal cell lines were established and tested for each variant. All cell lines were maintained in Dulbecco’s Modified Eagle’s medium (Invitrogen) supplemented with 10% heat-inactivated fetal calf serum (Sigma-Aldrich), penicillin (50 units.mL^−1) and streptomycin (0.5 mg.mL^−1) (Sigma-Aldrich) and grown at 37°C in a humidified 5% CO2 incubator.
For intracellular Ca^2+ assays, cells were plated at 80–90% confluence in 96-well plates 24 h prior to recordings (6–8 × 10^4 cells per well). […] Cells were washed with SBS and incubated at room temperature for 20 min prior to recordings. Equal volumes of 2x concentrated compounds were injected to test for acute channel activation. Pre-incubation with compounds occurred during the 20 min prior to recordings. To expose cell membranes to hypo-osmolality, an equal volume of hypotonic SBS (containing only 35 mM NaCl) was injected onto the cells. Measurements were made on a fluorescence plate reader (Flexstation III, Molecular Devices) at room temperature (21 ± 2°C). Fura-2 was excited at 340 nm and 380 nm and emitted light collected at 510 nm, with measurements shown as the change in fluorescence (F) ratio (ΔF340/380).
KC41 (Dooku1) was prepared as described.[28] All purchased chemicals and solvents were used without further purification unless otherwise stated. All compounds were at least 95% pure by 1H NMR. 1H Nuclear Magnetic Resonance spectra were recorded at 500 MHz using a Bruker DRX 500 instrument or at 400 MHz using a Bruker DPX 400. 1H spectra are referenced based on the residual proton in the solvent (e.g., the CHCl3, 0.01% in 99.99% CDCl3). Coupling constants (J) are reported to the nearest 0.1 Hz. 13C NMR spectra were recorded at 125 MHz on 500 MHz spectrometers or at 100 MHz on 400 MHz spectrometers. LC-MS was performed on a Bruker Daltronics running a gradient of increasing acetonitrile (5–95%) in H2O both containing 0.1% formic acid at 1 mL.min^−1, on a short path C18 reverse phase column, detecting compounds with both a diode array detector and a Bruker mass spectrum analyser. HRMS was performed on a Bruker Daltonics micrOTOF using positive electrospray ionisation (ES+). Automated column chromatograph was carried out using a Biotage Isolera Four, using either Sfär Silica D or KP-Silica cartridges. HPLC was performed on an Agilent 1290 Infinity Series equipped with a UV detector and Hyperprep C18 reverse phase column. Key to NMR abbreviations: s (singlet), br s (broad singlet) d (doublet), dd (doublet of doublets), ddd (doublet of doublets of doublets), t (triplet), dt (doublet of triples), q (quartet), m (multiplet), ap. t (apparent triplet). For experiments, Yoda1 and its analogues were prepared as 10 mM stock solutions in 100% dimethyl sulfoxide (DMSO) before serial dilution in DMSO and final dilution in aqueous solution. Cells were exposed to 0.1% DMSO for all concentrations of the compounds from 0 to 10 μM.

half-life [1]: 7.2 min
Mean (ΔFratio) (I2286T mPIEZO1; 0.3 µM, time 0 s): 0.00239
Mean (ΔFratio) (I2286T mPIEZO1; 0.3 µM, time 5 s): -0.00843
Mean (ΔFratio) (I2286T mPIEZO1; 0.3 µM, time 10 s): 0.00738
Mean (ΔFratio) (I2286T mPIEZO1; 0.3 µM, time 15 s): -3.95E-05
Mean (ΔFratio) (I2286T mPIEZO1; 0.3 µM, time 20 s): -9.74E-04
Mean (ΔFratio) (I2286T mPIEZO1; 0.3 µM, time 25 s): -3.25E-04
Mean (ΔFratio) (I2286T mPIEZO1; 0.3 µM, time 30 s): -0.07905
Mean (ΔFratio) (I2286T mPIEZO1; 0.3 µM, time 35 s): -0.08536
Mean (ΔFratio) (I2286T mPIEZO1; 0.3 µM, time 40 s): 0.2313
Mean (ΔFratio) (I2286T mPIEZO1; 0.3 µM, time 45 s): 0.4546
Mean (ΔFratio) (I2286T mPIEZO1; 0.3 µM, time 50 s): 0.5954
Mean (ΔFratio) (I2286T mPIEZO1; 0.3 µM, time 55 s): 0.6989
Mean (ΔFratio) (I2286T mPIEZO1; 0.3 µM, time 60 s): 0.7448
Mean (ΔFratio) (I2286T mPIEZO1; 0.3 µM, time 65 s): 0.7353
Mean (ΔFratio) (I2286T mPIEZO1; 0.3 µM, time 70 s): 0.7286
Mean (ΔFratio) (I2286T mPIEZO1; 0.3 µM, time 75 s): 0.7236
Mean (ΔFratio) (I2286T mPIEZO1; 0.3 µM, time 80 s): 0.681
Mean (ΔFratio) (I2286T mPIEZO1; 0.3 µM, time 85 s): 0.6794
Mean (ΔFratio) (I2286T mPIEZO1; 0.3 µM, time 90 s): 0.6567
Mean (ΔFratio) (I2286T mPIEZO1; 0.3 µM, time 95 s): 0.6006
Mean (ΔFratio) (I2286T mPIEZO1; 0.3 µM, time 100 s): 0.6101
Mean (ΔFratio) (I2286T mPIEZO1; 0.3 µM, time 105 s): 0.603
Mean (ΔFratio) (I2286T mPIEZO1; 0.3 µM, time 110 s): 0.5805
Mean (ΔFratio) (I2286T mPIEZO1; 0.3 µM, time 115 s): 0.5587
Mean (ΔFratio) (I2286T mPIEZO1; 0.3 µM, time 120 s): 0.5669
Mean (ΔFratio) (I2286T mPIEZO1; 0.3 µM, time 125 s): 0.5131
Mean (ΔFratio) (I2286T mPIEZO1; 0.3 µM, time 130 s): 0.5257
Mean (ΔFratio) (I2286T mPIEZO1; 3 µM, time 0 s): -0.00226
Mean (ΔFratio) (I2286T mPIEZO1; 3 µM, time 5 s): 0.01302
Mean (ΔFratio) (I2286T mPIEZO1; 3 µM, time 10 s): -0.01316
Mean (ΔFratio) (I2286T mPIEZO1; 3 µM, time 15 s): -0.00422
Mean (ΔFratio) (I2286T mPIEZO1; 3 µM, time 20 s): 0.00798
Mean (ΔFratio) (I2286T mPIEZO1; 3 µM, time 25 s): -0.00136
Mean (ΔFratio) (I2286T mPIEZO1; 3 µM, time 30 s): -0.4575
Mean (ΔFratio) (I2286T mPIEZO1; 3 µM, time 35 s): -0.0464
Mean (ΔFratio) (I2286T mPIEZO1; 3 µM, time 40 s): 0.8681
Mean (ΔFratio) (I2286T mPIEZO1; 3 µM, time 45 s): 1.381
Mean (ΔFratio) (I2286T mPIEZO1; 3 µM, time 50 s): 1.657
Mean (ΔFratio) (I2286T mPIEZO1; 3 µM, time 55 s): 1.797
Mean (ΔFratio) (I2286T mPIEZO1; 3 µM, time 60 s): 1.789
Mean (ΔFratio) (I2286T mPIEZO1; 3 µM, time 65 s): 1.7806
Mean (ΔFratio) (I2286T mPIEZO1; 3 µM, time 70 s): 1.778
Mean (ΔFratio) (I2286T mPIEZO1; 3 µM, time 75 s): 1.702
Mean (ΔFratio) (I2286T mPIEZO1; 3 µM, time 80 s): 1.669
Mean (ΔFratio) (I2286T mPIEZO1; 3 µM, time 85 s): 1.657
Mean (ΔFratio) (I2286T mPIEZO1; 3 µM, time 90 s): 1.535
Mean (ΔFratio) (I2286T mPIEZO1; 3 µM, time 95 s): 1.511
Mean (ΔFratio) (I2286T mPIEZO1; 3 µM, time 100 s): 1.421
Mean (ΔFratio) (I2286T mPIEZO1; 3 µM, time 105 s): 1.3863
Mean (ΔFratio) (I2286T mPIEZO1; 3 µM, time 110 s): 1.364
Mean (ΔFratio) (I2286T mPIEZO1; 3 µM, time 115 s): 1.304
Mean (ΔFratio) (I2286T mPIEZO1; 3 µM, time 120 s): 1.27
Mean (ΔFratio) (I2286T mPIEZO1; 3 µM, time 125 s): 1.258
Mean (ΔFratio) (I2286T mPIEZO1; 3 µM, time 130 s): 1.2123
pEC50 (I2286T mPIEZO1; 1.5 min exposure): 6.15
Mean (concentration-response, Figure 3l) (I2286T mPIEZO1; 1.5 min exposure, 0.01 µM): 0.00606
Mean (concentration-response, Figure 3l) (I2286T mPIEZO1; 1.5 min exposure, 0.03 µM): 0.01869
Mean (concentration-response, Figure 3l) (I2286T mPIEZO1; 1.5 min exposure, 0.1 µM): 0.08252
Mean (concentration-response, Figure 3l) (I2286T mPIEZO1; 1.5 min exposure, 0.3 µM): 0.2937
Mean (concentration-response, Figure 3l) (I2286T mPIEZO1; 1.5 min exposure, 1 µM): 0.643
Mean (concentration-response, Figure 3l) (I2286T mPIEZO1; 1.5 min exposure, 3 µM): 0.8962
Mean (concentration-response, Figure 3l) (I2286T mPIEZO1; 1.5 min exposure, 10 µM): 1.056
Compound: O=C(O)c1ccc(-c2cnc(SCc3c(Cl)cccc3Cl)s2)cc1 [Yoda2b, 4-(2-([(2,6-Dichlorophenyl)methyl]sulfanyl)-1,3-thiazol-5-yl)benzoic acid]
side-by-side comparison of channel activation with Yoda1 (I2286T mPIEZO1; same 96-well plate): more effective at activating I2286T channels than Yoda1

Reference: article PMC12337661, “PIEZO1 mechanical insensitivity in generalized lymphatic dysplasia with the potential for pharmacological rescue” (iScience, 2025)
